Results taken from patent publication US5202349A, “Substituted phenylacetylenes, pharmaceutical compositions containing these compounds and processes for the preparation of these compounds and compositions” (Gruenenthal GmbH, priority 1990, dated 1993).

Assays:
[1] = test system: ex vivo iLTB4-formation (5-lipoxygenase activity) in whole blood of rats; assay: Inhibition of ex vivo iLTB4-formation in rat whole blood after oral administration; design: species or system male rats (Wistar strain); conditions: Rattus norvegicus, 21.5 mg/kg oral, blood taken 1 hour later
Experimental: The bioavailability of the compounds of formula I after oral administration was characterized by means of an ex vivo biochemical assessment method described by Tateson et al. in Brit. Pharmacol., 94, 528 (1988).
Compounds of formula I were orally administered to male rats (Wistar strain). 1 hour later the rats were bled by heart puncture in letal CO2 -narcosis. The 5-lipoxygenase reaction was triggered by the addition of the calcium-ionophor A23187 to an end concentration of […] to aliquots of rat whole blood and subsequent incubation for 30 minutes at 37° C. in a water bath. At the end of the incubation the samples were centrifuged to collect the cell free plasma. The concentration of the immunoreactive LTB4 (iLTB4 ng/ml) in each plasma sample was determined by a LTB4 -radioimmunoassay (^3 H-LTB4 -RIA, Amersham) by means of a LTB4 -standard curve in diluted rat plasma. For calculation of the percent inhibition of ex vivo iLTB4 -formation in whole blood of rats treated with the compounds of formula I rats treated with appropiate vehicle solution were included in all experiments, aliquots of their blood were run in parallel and were processed in the same way as described. The mean iLTB4 -formation per ml plasma of these vehicle treated control rats served as 100 percent value of normal control 5-lipoxygenase activity. The percent inhibition of the ex vivo iLTB4 -formation after oral administration of compounds of formula I was calculated as follows: 100 minus 100 times the quotient of the mean iLTB4 concentration per ml plasma of the rats treated with compounds of formula I […] and the mean iLTB4 concentration per ml plasma of the control rats.

[2] = test system: endotoxin/galactosamine-induced hepatitis, increase of liver specific enzymes in the serum; assay: Endotoxin/galactosamine-induced hepatitis in mice (septic shock model); assay type: in vivo; conditions: 10 mg/kg i.p. for each of five applications, 8 hours after endotoxin
Experimental: As a test model to evaluate the effects of test compounds in septic shock the endotoxin/galactosamine-induced hepatitis in mice has been used. […] The intraperitoneal application of 5-lipoxygenase inhibitors 30 minutes before, simultaneously with and 2, 4 and 6 hours after the application of endotoxin inhibitis the hepatitis-induced increase of the serum activities of these enzymes. On administration of compounds of the formula I in doses of 10 mg/kg for each of the five applications the following percentual inhibitions of the increase of the enzymes GPT and SDH were achieved (the increase of enzymatic activities in control animals was set at 100%): […]

[3] = target: T1, cyclooxygenase (Ovis aries, UniProt P05979); assay: Inhibition of cyclooxygenase in sheep seminal vesicle microsomes ([14C]-arachidonic acid, TLC); assay type: biochemical; conditions: pH 7.0, read-out: IC50 for inhibition of cyclooxygenase (B)
T1 construct: suspension of sheep seminal vesicle microsomes; from tissue; host or cells: sheep seminal vesicle microsomes
T1 sequence (P05979 25-600): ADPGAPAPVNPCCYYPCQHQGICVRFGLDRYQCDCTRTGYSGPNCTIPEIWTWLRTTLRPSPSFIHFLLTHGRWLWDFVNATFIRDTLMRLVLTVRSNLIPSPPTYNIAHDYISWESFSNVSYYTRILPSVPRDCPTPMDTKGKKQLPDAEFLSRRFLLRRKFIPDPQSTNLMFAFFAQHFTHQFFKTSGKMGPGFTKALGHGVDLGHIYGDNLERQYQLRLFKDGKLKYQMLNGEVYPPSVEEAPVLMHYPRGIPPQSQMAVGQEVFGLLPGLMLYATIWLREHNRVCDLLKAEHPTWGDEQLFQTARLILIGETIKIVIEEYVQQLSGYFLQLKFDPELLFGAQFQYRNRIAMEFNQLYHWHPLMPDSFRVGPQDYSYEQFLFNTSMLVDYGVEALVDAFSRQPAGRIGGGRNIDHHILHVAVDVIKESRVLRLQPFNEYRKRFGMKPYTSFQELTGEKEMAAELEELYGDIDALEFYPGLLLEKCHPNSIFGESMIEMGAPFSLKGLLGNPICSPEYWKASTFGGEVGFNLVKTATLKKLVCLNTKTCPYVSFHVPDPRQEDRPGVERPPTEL
Experimental: The effect of the test compounds on the activity of cyclooxygenase was tested using a suspension of sheep seminal vesicle microsomes in 50 mM potassium phosphate buffer of pH 7.0 which was incubated with the solvent only (as control) or with the test compound and [^14 C]-arachidonic acid. The "IC50 -values (B)" (i.e. the concentration of the test compound which causes an 50%-inhibition of the cyclooxygenase) were determined by thin layer chromatography and by means of a TLC-Linear-Analyzer.

[4] = target: T2, 5-lipoxygenase (Rattus norvegicus, UniProt P12527); assay: Inhibition of 5-lipoxygenase in rat basophilic leukemia cells ([14C]-arachidonic acid, TLC); assay type: cell-based; conditions: for IC50: rat basophilic leukemia cells, standardized to nordihydroguaiaretic acid; for Quotient (IC50 cyclooxygenase (B) / 5-lipoxygenase (A)): selectivity
T2 construct: endogenous in cells; host or cells: rat basophilic leukemia cells
T2 sequence (P12527 1-673): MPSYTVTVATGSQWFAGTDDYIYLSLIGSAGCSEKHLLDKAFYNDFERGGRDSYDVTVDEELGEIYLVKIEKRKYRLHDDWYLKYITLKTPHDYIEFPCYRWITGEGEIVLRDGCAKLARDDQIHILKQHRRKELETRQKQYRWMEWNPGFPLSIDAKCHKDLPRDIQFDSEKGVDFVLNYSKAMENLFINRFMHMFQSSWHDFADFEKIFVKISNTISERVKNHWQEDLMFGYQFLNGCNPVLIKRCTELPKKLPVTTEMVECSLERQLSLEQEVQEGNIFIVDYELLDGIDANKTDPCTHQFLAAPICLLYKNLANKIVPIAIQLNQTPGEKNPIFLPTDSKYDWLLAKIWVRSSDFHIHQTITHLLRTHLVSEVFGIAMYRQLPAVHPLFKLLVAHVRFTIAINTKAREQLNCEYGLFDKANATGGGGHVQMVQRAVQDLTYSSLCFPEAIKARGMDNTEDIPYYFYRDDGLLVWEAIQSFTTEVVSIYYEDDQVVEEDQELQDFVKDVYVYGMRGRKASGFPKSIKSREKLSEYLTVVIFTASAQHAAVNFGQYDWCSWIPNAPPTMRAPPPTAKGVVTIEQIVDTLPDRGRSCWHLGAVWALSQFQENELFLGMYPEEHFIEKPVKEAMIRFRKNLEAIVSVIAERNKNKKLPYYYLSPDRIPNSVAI
Experimental: To 1 ml each of this suspension there was added indomethacin (10 μM) and calcium chlorid (2 mM) and then the mixture was incubated in presence or absence of a test compound for 3 minutes and thereafter with 20 μM of [^14 C]-arachidonic acid and 20 μM of the calcium ionophore A 23 187 for 10 minutes. The reaction was stopped by adding 20 μl of glacial acetic acid and then the mixture was extracted with ethyl acetate to isolate the metabolites of arachidonic acid formed by the enzymatic action of 5-lipoxygenase. These were separated by thin layer chromatography using a solvent mixture known to be suitable for leukotriene analysis [c.f. Jakschik et al., Biochem. Biophys. Res. Commun. 102, 624 (1981)]. The distribution of the radioactivity to the different metabolites was measured using a TLC Linear Analyzer. By bringing into relationship the percentages of the amount of the products formed under the action of 5-lipoxygenase (5-HETE, isomers of LTB4) in the controls (tests performed in absence of test compounds) and in the presence of test compounds of formula I in different concentrations the "IC50 -value" (i.e. the concentration of the test compound which causes an 50%-inhibition of the 5-lipoxygenase) is determined. For standardization these values then were brought into relationship to the IC50 -values determined in the same manner for the standard compound nordihydroguaiaretic acid.

Row | Compound | inhibition in vivo at 21.5 mg/kg [1] [%] | Inhibition of increase of GPT [2] [%] | Inhibition of increase of SDH [2] [%] | IC50 [3] [µM] | IC50 [4] [µM] | Quotient (IC50 cyclooxygenase (B) / 5-lipoxygenase (A)) [4]
1 | CC(=O)N(O)C(C)c1ccc(C#Cc2ccccc2)cc1 (stereo not drawn) [Example 2a, N-{1-[4-(Phenylethynyl)-phenyl]-ethyl}-acetohydroxamic acid] | 76 | – | – | – | – | –
2 | COc1ccc(C#Cc2cccc(CN(O)C(C)=O)c2)cc1 [Example 4, N-[3-(4-Methoxy-phenylethynyl)-benzyl]-acetohydroxamic acid] | – | 87 | 81 | – | – | –
3 | COc1ccc(C#Cc2cccc(C(C)N(O)C(C)=O)c2)cc1OC (stereo not drawn) [Example 5b, N-{1-[3-(3,4-Dimethoxy-phenylethynyl)-phenyl]-ethyl}-acetohydroxamic acid] | – | – | – | > 500 | 0.28 | > 1786
4 | COc1cccc(C#Cc2cccc(C(C)N(O)C(C)=O)c2)c1 (stereo not drawn) [Example 5c, N-{1-[3-(3-Methoxy-phenylethynyl)-phenyl]-ethyl}-acetohydroxamic acid] | 88 | – | – | > 500 | 0.58 | > 862
5 | CC(=O)N(O)Cc1cccc(C#Cc2ccc(C(C)C)cc2)c1 [Example 5e, N-[3-(4-Isopropyl-phenylethynyl)-benzyl]-acetohydroxamic acid] | 82 | – | – | – | – | –
6 | NC(=O)N(O)Cc1cccc(C#Cc2cccc3ccccc23)c1 [Example 7, N-Hydroxy-N-[-3-(naphth-1-yl-ethynyl)-benzyl]-urea] | 90 | – | – | > 500 | 0.65 | > 769
7 | CC(c1cccc(C#Cc2ccc(F)cc2)c1)N(O)C(N)=O (stereo not drawn) [Example 8b, N-Hydroxy-N-{1-[3-(4-fluorophenylethynyl)-phenyl]-ethyl}-urea] | 99 | – | – | – | – | –
8 | COc1ccc(C#Cc2cccc(C(C)N(O)C(N)=O)c2)cc1OC (stereo not drawn) [Example 10b, N-Hydroxy-N-{1-[3-(3,4-dimethoxy-phenylethynyl)-phenyl]-ethyl}-urea] | 86 | – | – | > 500 | 0.69 | > 725
9 | COc1cccc(C#Cc2cccc(C(C)N(O)C(N)=O)c2)c1 (stereo not drawn) [Example 10c, N-Hydroxy-N-{1-[3-(3-methoxy-phenylethynyl)-phenyl]-ethyl}-urea] | – | – | – | > 500 | 0.27 | > 1852
10 | CC(c1cccc(C#Cc2ccc(Cl)cc2)c1)N(O)C(N)=O (stereo not drawn) [Example 10d, N-Hydroxy-N-{1-[3-(4-chloro-phenylethynyl)-phenyl]-ethyl}-urea] | 99 | – | – | 500 | 0.55 | 909
11 | CC(C)c1ccc(C#Cc2cccc(CN(O)C(N)=O)c2)cc1 [Example 10e] | 81 | – | – | – | – | –
12 | COc1ccccc1C#Cc1cccc(C(C)N(O)C(N)=O)c1 (stereo not drawn) [Example 10g, N-Hydroxy-N-{1-[3-(2-methoxy-phenylethynyl)-phenyl]-ethyl}-urea] | – | – | – | 270 | 0.32 | 844
13 | NC(=O)N(O)Cc1cccc(C#Cc2ccc(Cl)cc2)c1 [Example 10m, N-Hydroxy-N-[3-(4-chlorophenylethynyl)-benzyl]-urea] | – | – | – | > 500 | 0.26 | > 1923
14 | COc1ccc(C#Cc2cccc(CN(O)C(N)=O)c2)cc1 [Example 10n, N-Hydroxy-N-[3-(4-methoxyphenylethynyl)-benzyl]-urea] | – | – | – | > 500 | 0.18 | > 2778
15 | CC(c1cccc(C#Cc2ccc(C(F)(F)F)cc2)c1)N(O)C(N)=O (stereo not drawn) [Example 11, N-Hydroxy-N-{1-[3-(4-trifluoromethyl-phenylethynyl)-phenyl]-ethyl}-urea] | 76 | – | – | > 500 | 0.67 | > 746
16 | CC(=O)N(O)C(C)c1cccc(C#Cc2ccc(Cl)cc2)c1 (stereo not drawn) [Example 12, N-{1-[3-(4-Chloro-phenylethynyl)-phenyl]-ethyl}-acetohydroxamic acid] | 87 | – | – | – | – | –
17 | CC(c1ccc(C#Cc2cccs2)cc1)N(O)C(N)=O (stereo not drawn) [Example 15, N-Hydroxy-N-{1-[4-(thien-2-yl-ethynyl)-phenyl]-ethyl}-urea] | 77 | – | – | 500 | 0.41 | 1220
18 | CC(c1ccc(C#Cc2ccsc2)cc1)N(O)C(N)=O (stereo not drawn) [Example 16b, N-Hydroxy-N-{1-[4-(thien-3-yl-ethynyl)-phenyl]-ethyl}-urea] | 91 | – | – | 500 | 0.29 | 1724
19 | NC(=O)N(O)Cc1ccc(C#Cc2cccs2)cc1 [Example 16d, N-Hydroxy-N-[4-(thien-2-yl-ethynyl)-benzyl]-urea] | – | – | – | 500 | 0.37 | 1351
20 | NC(=O)N(O)Cc1ccc(C#Cc2ccsc2)cc1 [Example 16f, N-Hydroxy-N-[4-(thien-3-yl-ethynyl)-benzyl]-urea] | 97 | – | – | 500 | 0.41 | 1220
